Reference: patent US9499550B2 (BRISTOL-MYERS SQUIBB COMPANY, priority 2012, dated 2016)
Read-outs that look alike come from different tables or passages of the source.

How the values were obtained:
[1] = system: HCV genotype 1a (H77 strain) replicon in HUH-7 cells; test: HCV replicon luciferase reporter assay, genotype 1a; format: cell-based; settings: Hepatitis C virus, Huh-7, 72 h, 3 days incubation, read-out: LE_1a (EC50, range)
In short: (§1)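 Replicon inhibition for both genotypes was measured as Renilla luciferase signal (EnduRen, 7.5 μM final, 2 h) after 3-day, 37° C exposure of replicon-bearing HUH-7 cells in 4% FCS DMEM, 0.5% DMSO. The 1b construct carries S1179I; the 1a H77 construct carries P1496L and S2204I. Twenty-point, 3-fold dilutions were fitted four-parametrically for EC50, and CC50 was taken from multiplexed Cell Titer-Blue.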

[2] = system: HCV genotype 1b (Con1) replicon in HUH-7 cells; test: HCV replicon luciferase reporter assay, genotype 1b; format: cell-based; settings: Hepatitis C virus, Huh-7, 72 h, 3 days incubation, read-out: LE_1b (EC50, range)
In short: as §1

[3] = HCV genotype 1a replicon luciferase assay, range class
[4] = HCV genotype 1b replicon luciferase assay, range class
[5] = HCV genotype 1a replicon luciferase
[6] = HCV genotype 1b replicon luciferase

| Structure (SMILES) | EC50 [1, 3] [nM] | EC50 [2, 4] [nM] | EC50 [1, 5] [nM] | EC50 [2, 6] [nM] | further results |
| --- | --- | --- | --- | --- | --- |
| CCN(C)c1cc2cc(OC)ccc2c(O[C@@H]2C[C@H]3C(=O)N[C@]4(C(=O)NS(=O)(=O)C5(CF)CC5)C[C@H]4/C=C\CC[C@@H](C)C[C@@H](C)[C@H](NC(=O)OC(C)(C)C(C)(F)F)C(=O)N3C2)n1 [Compound 1139, 3,3-difluoro-2-methylbutan-2-yl((2R,6S,7R,9R,13aS,14aR,16aS,Z)-2-((3-(ethyl(methyl)amino)-6-methoxyisoquinolin-1-yl)oxy)-14a-(((1-(fluoromethyl)cyclopropyl)sulfonyl)carbamoyl)-7,9-dimethyl-5,16-dioxo-1,2,3,5,6,7,8,9,10,11,13a,14,14a,15,16,16a-hexadecahydrocyclopropa[e]pyrrolo[1,2-a][1,4]diazacyclopentadecin-6-yl)carbamate] | 4.82 to 103 | 4.82 to 103 |  |  |  |
| COc1ccc2c(O[C@@H]3C[C@H]4C(=O)N[C@]5(C(=O)NS(=O)(=O)C6(C)CC6)C[C@H]5/C=C\CC[C@H](C)C[C@@H](C)[C@H](NC(=O)OC(C)(C)C(F)(F)F)C(=O)N4C3)nc(-c3ccc(OC(C)C)cc3)nc2c1 [Compound 3011, 1,1,1-trifluoro-2-methylpropan-2-yl((2R,6S,7R,9S,13aS,14aR,16aS,Z)-2-((2-(4-isopropoxyphenyl)-7-methoxyquinazolin-4-yl)oxy)-7,9-dimethyl-14a-(((1-methylcyclopropyl)sulfonyl)carbamoyl)-5,16-dioxo-1,2,3,5,6,7,8,9,10,11,13a,14,14a,15,16,16a-hexadecahydrocyclopropa[e]pyrrolo[1,2-a][1,4]diazacyclopentadecin-6-yl)carbamate] | 4.82 to 103 | < 5.46 |  |  |  |
| CCOc1ccc2nc(O)c(O[C@@H]3C[C@H]4C(=O)N[C@]5(C(=O)NS(=O)(=O)C6(C)CC6)C[C@H]5/C=C\CC[C@@H](C)C[C@@H](CC)[C@H](NC(=O)OC(C)(C)C)C(=O)N4C3)nc2c1 [Compound 4361, tert-butyl ((2R,6S,7R,9R,13aS,14aR,16aS,Z)-2-((7-ethoxy-3-hydroxyquinoxalin-2-yl)oxy)-7-ethyl-9-methyl-14a-(((1-methylcyclopropyl)sulfonyl)carbamoyl)-5,16-dioxo-1,2,3,5,6,7,8,9,10,11,13a,14,14a,15,16,16a-hexadecahydrocyclopropa[e]pyrrolo[1,2-a][1,4]diazacyclopentadecin-6-yl)carbamate] |  |  | 35 to 620 | 5.01 to 35 |  |
| COc1ccc2c(O[C@@H]3C[C@H]4C(=O)N[C@]5(C(=O)NS(=O)(=O)C6(C)CC6)C[C@H]5/C=C\CC[C@@H](C)C[C@@H](C)[C@H](NC(=O)C5CCN(C(C)=O)CC5)C(=O)N4C3)ncc(OC)c2c1 [Compound 4141, (2R,6S,7R,9R,13aS,14aR,16aS,Z)-6-(1-acetylpiperidine-4-carboxamido)-2-(4,6-dimethoxyisoquinolin-1-yloxy)-7,9-dimethyl-N-(1-methylcyclopropylsulfonyl)-5,16-dioxo-1,2,3,5,6,7,8,9,10,11,13a,14,14a,15,16,16a-hexadecahydrocyclopropa[e]pyrrolo[1,2-a][1,4]diazacyclopentadecine-14a-carboxamide] |  |  | 4.82 to 103 | 4.82 to 103 |  |
| C[C@H]1CC/C=C\[C@@H]2C[C@@]2(C(=O)NS(=O)(=O)C2CC2)NC(=O)[C@@H]2C[C@@H](Oc3ncc(OC4CC4)c4ccccc34)CN2C(=O)[C@@H](NC(=O)OC(C)(C)C(F)(F)F)[C@H](C)C1 [Compound 25, 1,1,1-trifluoro-2-methylpropan-2-yl((2R,6S,7R,9S,13aS,14aR,16aS,Z)-2-((4-cyclopropoxyisoquinolin-1-yl)oxy)-14a-((cyclopropylsulfonyl)carbamoyl)-7,9-dimethyl-5,16-dioxo-1,2,3,5,6,7,8,9,10,11,13a,14,14a,15,16,16a-hexadecahydrocyclopropa[e]pyrrolo[1,2-a][1,4]diazacyclopentadecin-6-yl)carbamate] | 4.82 to 103 | 4.82 to 103 |  |  |  |
| CCN(C)c1cc2cc(OC)ccc2c(O[C@@H]2C[C@H]3C(=O)N[C@]4(C(=O)NS(=O)(=O)C5(CF)CC5)C[C@H]4/C=C\CC[C@@H](C)C[C@@H](C)[C@H](NC(=O)OC(C)(C)C(F)(F)F)C(=O)N3C2)n1 [Compound 1137, 1,1,1-trifluoro-2-methylpropan-2-yl((2R,6S,7R,9R,13aS,14aR,16aS,Z)-2-((3-(ethyl(methyl)amino)-6-methoxyisoquinolin-1-yl)oxy)-14a-(((1-(fluoromethyl)cyclopropyl)sulfonyl)carbamoyl)-7,9-dimethyl-5,16-dioxo-1,2,3,5,6,7,8,9,10,11,13a,14,14a,15,16,16a-hexadecahydrocyclopropa[e]pyrrolo[1,2-a][1,4]diazacyclopentadecin-6-yl)carbamate] | 4.82 to 103 | < 5.46 |  |  |  |
| CCOc1ccc2c(O[C@@H]3C[C@H]4C(=O)N[C@]5(C(=O)NS(=O)(=O)C6CC6)C[C@H]5/C=C\CC[C@@H](C)C[C@@H](CC)[C@H](NC(=O)OC(C)(C)C(C)(F)F)C(=O)N4C3)nccc2c1 [Compound 5359] |  |  | 1.01 to 5 | 1.01 to 5 |  |
| CC(C)n1nc(O[C@@H]2C[C@H]3C(=O)N[C@]4(C(=O)NS(=O)(=O)C5CC5)C[C@H]4/C=C\CC[C@@H](C)C[C@@H](C)[C@H](NC(=O)OC(C)(C)C(F)(F)F)C(=O)N3C2)c2ccccc2c1=O [Compound 1010, 1,1,1-trifluoro-2-methylpropan-2-yl((2R,6S,7R,9R,13aS,14aR,16aS,Z)-14a-((cyclopropylsulfonyl)carbamoyl)-2-((3-isopropyl-4-oxo-3,4-dihydrophthalazin-1-yl)oxy)-7,9-dimethyl-5,16-dioxo-1,2,3,5,6,7,8,9,10,11,13a,14,14a,15,16,16a-hexadecahydrocyclopropa[e]pyrrolo[1,2-a][1,4]diazacyclopentadecin-6-yl)carbamate] | 4.82 to 103 | 4.82 to 103 |  |  |  |
| COc1ccc2c(O[C@@H]3C[C@H]4C(=O)N[C@]5(C(=O)NS(=O)(=O)C6(C)CC6)C[C@H]5/C=C\CC[C@@H](C)C[C@@H](C)[C@H](NC(=O)OC(C)(C)C)C(=O)N4C3)nc(N(C)C)nc2c1 [Compound 3002, tert-butyl ((2R,6S,7R,9R,13aS,14aR,16aS,Z)-2-((2-(dimethylamino)-7-methoxyquinazolin-4-yl)oxy)-7,9-dimethyl-14a-(((1-methylcyclopropyl)sulfonyl)carbamoyl)-5,16-dioxo-1,2,3,5,6,7,8,9,10,11,13a,14,14a,15,16,16a-hexadecahydrocyclopropa[e]pyrrolo[1,2-a][1,4]diazacyclopentadecin-6-yl)carbamate] | < 5.46 | < 5.46 |  |  |  |
| CCCOc1cc2c(Cl)cccc2c(O[C@@H]2C[C@H]3C(=O)N[C@]4(C(=O)NS(=O)(=O)C5(C)CC5)C[C@H]4/C=C\CC[C@@H](C)C[C@@H](C)[C@H](NC(=O)OC(C)(C)C(F)(F)F)C(=O)N3C2)n1 [Compound 1078, 1,1,1-trifluoro-2-methylpropan-2-yl((2R,6S,7R,9R,13aS,14aR,16aS,Z)-2-((5-chloro-3-propoxyisoquinolin-1-yl)oxy)-7,9-dimethyl-14a-(((1-methylcyclopropyl)sulfonyl)carbamoyl)-5,16-dioxo-1,2,3,5,6,7,8,9,10,11,13a,14,14a,15,16,16a-hexadecahydrocyclopropa[e]pyrrolo[1,2-a][1,4]diazacyclopentadecin-6-yl)carbamate] | < 5.46 | < 5.46 |  |  |  |
| C[C@@H]1CC/C=C\[C@@H]2C[C@@]2(C(=O)NS(=O)(=O)C2CC2)NC(=O)[C@@H]2C[C@@H](Oc3ncc(OCC(F)F)c4ccccc34)CN2C(=O)[C@@H](NC(=O)OC(C)(C)C(F)(F)F)[C@H](C)C1 [Compound 1032, 1,1,1-trifluoro-2-methylpropan-2-yl((2R,6S,7R,9R,13aS,14aR,16aS,Z)-14a-((cyclopropylsulfonyl)carbamoyl)-2-((4-(2,2-difluoroethoxyl)isoquinolin-1-yl)oxy)-7,9-dimethyl-5,16-dioxo-1,2,3,5,6,7,8,9,10,11,13a,14,14a,15,16,16a-hexadecahydrocyclopropa[e]pyrrolo[1,2-a][1,4]diazacyclopentadecin-6-yl)carbamate] | < 5.46 | < 5.46 |  |  |  |
| CC[C@@H]1C[C@H](C)CC/C=C\[C@@H]2C[C@@]2(C(=O)NS(=O)(=O)C2CC2)NC(=O)[C@@H]2C[C@@H](Oc3nc4c(c5cc(OC)c(F)cc35)CCCO4)CN2C(=O)[C@H]1NC(=O)OC(C)(C)C(F)(F)F [Compound 1195] |  |  |  |  | EC50 ([1]; GETYPE1A, HCV genotype 1a replicon luciferase): 1.01 to 5 nM; EC50 ([2]; GETYPE1B, HCV genotype 1b replicon luciferase): 1.01 to 5 nM |
| [2H]C([2H])([2H])C(OC(=O)N[C@@H]1C(=O)N2C[C@H](Oc3nn(CC)c(=O)c4ccccc34)C[C@H]2C(=O)N[C@]2(C(=O)NS(=O)(=O)C3CC3)C[C@H]2/C=C\CC[C@H](C)C[C@H]1C)(C([2H])([2H])[2H])C(F)(F)F [Compound 5068] |  |  | > 87.4 | > 87.4 |  |
| CC[C@@H]1C[C@H](C)CC/C=C\[C@@H]2C[C@@]2(C(=O)NS(=O)(=O)C2(C)CC2)NC(=O)[C@@H]2C[C@@H](Oc3nc(OC)cc4cc(F)ccc34)CN2C(=O)[C@H]1NC(=O)OC(C)(C)C(C)(F)F [Compound 3216, 3,3-difluoro-2-methylbutan-2-yl((2R,6S,7R,9R,13aS,14aR,16aS,Z)-7-ethyl-2-((6-fluoro-3-methoxyisoquinolin-1-yl)oxy)-9-methyl-14a-(((1-methylcyclopropyl)sulfonyl)carbamoyl)-5,16-dioxo-1,2,3,5,6,7,8,9,10,11,13a,14,14a,15,16,16a-hexadecahydrocyclopropa[e]pyrrolo[1,2-a][1,4]diazacyclopentadecin-6-yl)carbamate] |  |  | 1.01 to 5 | 0.1 to 0.5 |  |
